# Measured values from the supplement of paper PMC10307832.
# Columns and labels:
# Assay in all cases: relative viability (nuclei count vs DMSO), 5 days (fraction); higher = more cells survive
# Vemurafenib + Luminespib = compound: CCCS(=O)(=O)Nc1ccc(F)c(C(=O)c2c[nH]c3ncc(-c4ccc(Cl)cc4)cc23)c1F [Vemurafenib] + CCNC(=O)c1noc(-c2cc(C(C)C)c(O)cc2O)c1-c1ccc(CN2CCOCC2)cc1 [Luminespib] (partner 0.01 µM)
# Outline: (§1)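 Nuclei were stained with Hoechst during a one-step fixation (final 0.05% Triton X-100, 1% formaldehyde, 1 ug/ml Hoechst) carried out 5 days after dosing, then counted on 4× images. The cells, lung cancer lines in 1536-well plates, had been dosed by pin tool the day after seeding with one drug alone or a fixed anchor-drug dose plus five library-drug doses (not always all listed) in √10 steps. Relative viability is the nuclei count in treated wells divided by that in vehicle wells, and each value is the median of duplicate plates.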
# OSI-027 + Dasatinib = compound: COc1cccc2cc(-c3nc([C@H]4CC[C@H](C(=O)O)CC4)n4ncnc(N)c34)[nH]c12 [OSI-027] + Cc1nc(Nc2ncc(C(=O)Nc3c(C)cccc3Cl)s2)cc(N2CCN(CCO)CC2)n1 [Dasatinib] (partner 0.075 µM)
# Outline: as §1
# Alpelisib + Crizotinib = compound: Cc1nc(NC(=O)N2CCC[C@H]2C(N)=O)sc1-c1ccnc(C(C)(C)C(F)(F)F)c1 [Alpelisib] + C[C@@H](Oc1cc(-c2cnn(C3CCNCC3)c2)cnc1N)c1c(Cl)ccc(F)c1Cl [Crizotinib] (partner 1 µM)
# Outline: as §1
# Alpelisib + Tozasertib = compound: Cc1nc(NC(=O)N2CCC[C@H]2C(N)=O)sc1-c1ccnc(C(C)(C)C(F)(F)F)c1 [Alpelisib] + Cc1cc(Nc2cc(N3CCN(C)CC3)nc(Sc3ccc(NC(=O)C4CC4)cc3)n2)n[nH]1 [Tozasertib] (partner 0.1 µM)
# Outline: as §1
Cell Line,relative viability (Vemurafenib + Luminespib; first compound 0.03162 µM),relative viability (Vemurafenib + Luminespib; first compound 0.3162 µM),relative viability (Vemurafenib + Luminespib; first compound 1 µM),relative viability (OSI-027 + Dasatinib; first compound 0.01 µM),relative viability (OSI-027 + Dasatinib; first compound 0.03162 µM),relative viability (OSI-027 + Dasatinib; first compound 0.1 µM),relative viability (OSI-027 + Dasatinib; first compound 0.3162 µM),relative viability (OSI-027 + Dasatinib; first compound 1 µM),relative viability (Alpelisib + Crizotinib; first compound 0.04 µM),relative viability (Alpelisib + Crizotinib; first compound 0.1265 µM),relative viability (Alpelisib + Crizotinib; first compound 0.4 µM),relative viability (Alpelisib + Crizotinib; first compound 1.265 µM),relative viability (Alpelisib + Crizotinib; first compound 4 µM),relative viability (Alpelisib + Tozasertib; first compound 0.04 µM),relative viability (Alpelisib + Tozasertib; first compound 0.1265 µM),relative viability (Alpelisib + Tozasertib; first compound 0.4 µM),relative viability (Alpelisib + Tozasertib; first compound 1.265 µM),relative viability (Alpelisib + Tozasertib; first compound 4 µM),relative viability (Vemurafenib + Luminespib; first compound 0.1 µM)
PC-3 [JPC-3],0.671,0.724,0.782,0.883,0.895,1.03,0.936,0.494,1.03,1.05,1.07,0.901,0.969,0.898,0.873,0.968,0.84,0.806,
NCI-H1648,,,,,,,,,,,,,,,0.68,0.607,0.27,0.22,
NCI-H1651,0.91,0.946,0.84,0.405,0.325,0.352,0.358,0.213,0.845,0.906,0.889,0.784,0.694,0.636,0.651,0.708,0.653,0.607,1.05
NCI-H596,0.984,1.01,0.958,0.588,0.55,0.606,0.562,0.564,1.06,1.01,0.841,0.616,0.406,0.859,0.893,0.86,0.56,0.374,1.1
HARA,0.482,0.638,0.814,0.227,0.247,0.25,0.253,0.209,1.04,1.03,1.15,0.845,0.622,0.109,0.074,0.107,0.0657,0.0666,0.6
NCI-H727,0.309,0.313,0.353,0.368,1.04,0.354,0.394,0.339,0.839,0.771,0.891,0.717,0.508,0.749,0.584,0.641,0.575,0.459,
Calu-6,,,,,,,,,0.772,0.691,0.911,0.753,0.559,,,,,,
HCC-366,,,,0.679,0.708,0.61,0.477,0.395,0.488,0.459,0.585,0.215,0.0795,0.151,0.117,0.13,0.0701,0.0516,
IA-LM,,,,,,,,,0.829,0.643,1.23,0.718,0.818,,,,,,
NCI-H1793,0.16,0.173,0.166,0.352,0.391,0.389,0.279,0.193,,,,,,0.275,0.383,0.312,0.169,0.188,
NCI-H1299,,,,,,,,,0.935,0.943,1,0.996,0.936,,,,,,
NCI-H2342,0.609,0.792,0.701,0.316,0.278,0.314,0.296,0.316,,,,,,0.419,0.473,0.389,0.401,0.367,0.622
HCC-78,,,,0.329,0.356,0.3,0.266,0.325,0.289,0.294,0.318,0.234,0.242,0.411,0.318,0.504,0.401,0.292,
A549,,,,,,,,,0.698,0.707,0.625,0.389,0.405,,,,,,
NCI-H1703,,,,,,,,,0.465,0.576,0.539,0.277,0.35,,,,,,
EBC-1,,,,,,,,,0.229,0.177,0.204,0.199,0.177,,,,,,
SW 900,0.168,0.207,0.208,,0.6,0.641,0.487,0.288,,,,,,0.734,0.5,0.88,0.571,0.358,0.174
NCI-H1563,0.505,0.563,0.59,0.444,0.467,0.447,0.457,0.454,0.877,0.89,0.753,0.775,0.707,,,,,,0.475
NCI-H522,0.96,,1.13,0.963,0.944,0.723,0.629,0.736,,,,,,0.519,0.558,0.527,0.47,0.37,1.14
HCC-44,0.915,,1.07,,,,,,0.78,0.723,0.833,0.773,0.634,0.883,0.935,1.11,0.376,0.607,1.19
NCI-H1623,0.631,0.679,0.414,0.52,0.607,0.455,0.365,0.275,,,,,,0.446,0.338,0.388,0.347,0.29,
NCI-H1792,0.373,0.575,0.434,0.664,0.617,0.818,0.7,0.211,1.01,0.884,0.983,0.886,0.72,,,,,,0.345
NCI-H1395,0.679,,0.555,0.385,0.398,0.373,0.341,0.343,,,,,,0.823,0.695,0.743,0.616,0.735,0.445
